Data set [1] deals with chick chorioallantoic membrane (CAM) blood vessel branch points. The data set can be described thus: Chick chorioallantoic membrane (CAM) model of angiogenesis. Format: in vivo. The procedure: In vivo neovascularization was examined by methods described previously. 9-12 Ten-day-old chick embryos were purchased from SPAFAS (Preston, Conn.) and incubated at 37° C. with 55% relative humidity. A hypodermic needle was used to make a small hole in the shell concealing the air sac, and a second hole was made on the broad side of the egg, directly over an avascular portion of the embryonic membrane that was identified by candling. A false air sac was created beneath the second hole by the application of negative pressure at the first hole, causing the CAM to separate from the shell. […] Thyroid hormone, hormone analogs, FGF2 or control solvents, and inhibitors were then applied to the disks and the disks allowed to dry. The disks were then suspended in PBS and placed on growing CAMs. […] At 24 hours, the MAPK cascade inhibitor PD 98059 was also added to CAMs topically by means of the filter disks. […] The number of vessel branch points contained in a circular region equal to the area of each filter disk were counted. […] In addition, each experiment was performed 3 times. The resulting angiogenesis index is the mean±SEM of new branch points.

Data set [2] deals with matrigel plug angiogenesis. In words: Mouse matrigel model of angiogenesis (plug hemoglobin). Format: in vivo, mice (C57BL/6NCr). Particulars: for inhibition in vivo at 10 µg/plug: Mus musculus, FGF 100 ng + test substance 10 μg/plug; for inhibition in vivo at 10 µg/plug / inhibition of FGF-induced angiogenesis (in words): numbers are Tetrac analogs of Example 13. Here is the method:
Normal male mice (C57BL/6NCr) 6-8 weeks of age and weighing ˜20 g were purchased from Taconic farm. Animals were housed 4 per cage, in controlled conditions of temperature (20-24° C.); humidity (60-70%) and 12 hrs. light/dark cycle provided with food and water ad libitum. […] Aliquots of matrigel were placed into cold polypropylene tubes to prevent the matrigel from solidifying and the angiogenesis promoter added to matrigel with or without agonist. Mice were treated daily. Matrigel was subcutaneously injected as triple injection per animal at 100 μL/animal. At day 14 post plug implant all animals were killed in CO2 chamber and matrigel plugs were collected. Plug hemoglobin content was analyzed from three implants/mice (n=6 per group) to measure angiogenesis.
The matrigel plugs dissected from the mice were carefully stripped of any remaining peritoneum. The plugs were placed into 0.5 mL tube of ddH2O and homogenized for 5-10 min. […] Absorbance was read with a Microplate Manager ELISA reader at 540 nm. […] Hemoglobin concentration is a reflection of the number of blood vessels in the plugs.

Where [3] appears, read: Gallus gallus, read-out: Mean % of stimulation (comparing to PBS).
The mark [4] stands for this setting: 0.01 uM; n = 8 per group; PBS (Control) 89.4 ± 9.3.
Where [5] appears, read: 0.1 uM; n = 8 per group; PBS (Control) 89.4 ± 9.3.
[6] abbreviates: 10 μg/matrigel plug, numbers are T4 analogs of Example 12, n = 6-7, Control 0.3 ± 0.1.
Setting [7] is: numbers are T4 analogs of Example 12.
The mark [8] stands for this setting: T4 + test substance, each 10 μg/matrigel plug, n = 25, T4 alone 1.2 ± 0.4.
Setting [9] is: 1 μM; numbers are T4 analogs of Example 12.
The mark [10] stands for this setting: 1 μM; numbers are T4 analogs of Example 12; mean ± SEM, n = 8; PBS 73 ± 6.
Setting [11] is: 10 μg/matrigel plug, numbers are T4 analogs of Example 12.

Several values for one entry are separate records, joined by “and”; a condition that tells them apart may be missing. Equal entries are not always repeated. Where two headings read alike, the source gives them in different places.

By melting point is commonly meant the temperature of the solid-liquid transition. For `CC(C)[Si](OC(=O)Cc1cc(I)c(Oc2cc(I)c(OCC3CO3)c(I)c2)c(I)c1)(C(C)C)C(C)C` (centres unmarked), the melting point was 120 °C.

In turn, `O=C(Cc1cc(I)c(Oc2cc(I)c(OCC3CO3)c(I)c2)c(I)c1)OCC1CO1` (centres unmarked) came in with a melting point of 116 °C.

Consider `CC(C)(C)OC(=O)NC(Cc1cc(I)c(Oc2cc(I)c(OCC3CO3)c(I)c2)c(I)c1)C(=O)OCC1CO1` (centres unmarked) (hydrate or solvate) [T4 analog 14, Oxiran-2-ylmethyl-2-(tert-butoxycarbonylamino)-3-(4-(3,5-diiodo-4-(oxiran-2-ylmethoxy)phenoxy)-3,5-diiodophenyl)propanoate], for which the melting point was 105 °C.

Turning to `CC(C)[Si](OC(=O)C(Cc1cc(I)c(Oc2cc(I)c(OCC3CO3)c(I)c2)c(I)c1)NC(=O)OC(C)(C)C)(C(C)C)C(C)C` (centres unmarked) (hydrate or solvate) [T4 analog 15, Triisopropylsilyl-2-(tert-butoxycarbonylamino)-3-(4-(3,5-diiodo-4-(oxiran-2-ylmethoxy)phenoxy)-3,5-diiodophenyl)propanoate], the melting point was determined as 109 °C.

As for `CC(C)(C)OC(=O)NC(Cc1cc(I)c(Oc2cc(I)c(O)c(I)c2)c(I)c1)C(=O)O` (centres unmarked) [Compound 7], in data set [1] (setting [3]), the change in vivo at 0.1 µM amounted to 137 ± 7.5%.

For `CC(=O)NC(Cc1cc(I)c(Oc2cc(I)c(OC(C)=O)c(I)c2)c(I)c1)C(=O)O` (centres unmarked) [Compound 9], in data set [1] (Gallus gallus; read-out: Mean % of stimulation (comparing to PBS)), the change in vivo at 0.1 µM came out at 67.1 ± 5%.

In general, inhibition in vivo refers to the drop in the measured response relative to a control, in per cent. Regarding `O=C(O)Cc1cc(I)c(Oc2cc(I)c(OCC3CO3)c(I)c2)c(I)c1` (centres unmarked) [Compound 9], the inhibition in vivo at 10 µg/plug in data set [2] was found to be 100 ± 12%.

Regarding `O=C(O)CCc1cc(I)c(Oc2ccc(O)cc2)c(I)c1` [DITPA, 3,5-diiodothyropropionic acid], the “ANGIOGENESIS INDEX” value in data set [1] (setting [4]) was 133.0 ± 11.6; in data set [1] (setting [5]), 167.3 ± 12.7; in data set [1] (0.2 mM; n = 8 per group; PBS (Control) 89.4 ± 9.3) it was 117.9 ± 5.6.

Turning to `Cc1cc(OCC(=O)O)cc(C)c1Cc1ccc(O)c(C(C)C)c1` [GC-1, 3,5-dimethyl-4-(4′-hydroxy-3′-isopropylbenzyl)-phenoxy acetic acid], the “ANGIOGENESIS INDEX” value is reported as 169.6 ± 11.6 in data set [1] (setting [4]) and 152.7 ± 9.0 in data set [1] (setting [5]).

Take `O=C(O)C(Cc1cc(I)c(Oc2cc(I)c(O)c(I)c2)c(I)c1)NC(c1ccccc1)(c1ccccc1)c1ccccc1` (centres unmarked) [PRIAB2]: the “Branch pts ± SEM” value in data set [1] (0.1 μM; PBS 76.0 ± 8.5) came to 136.0 ± 18.1.

For `CNC(Cc1cc(I)c(Oc2cc(I)c(O)c(I)c2)c(I)c1)C(=O)O` (centres unmarked) [PRIAB6], the “Branch pts ± SEM” value in data set [1] (0.1 μM; PBS 76.0 ± 8.5) is 136.2 ± 12.4.

In the case of `CCNC(Cc1cc(I)c(Oc2cc(I)c(O)c(I)c2)c(I)c1)C(=O)O` (centres unmarked) [PRIAB12], the “Branch pts ± SEM” value in data set [1] (0.1 μM; PBS 76.0 ± 8.5) is listed as 121.7 ± 13.6.

Consider `CC(C)(C)OC(=O)NC(Cc1cc(I)c(Oc2cc(I)c(O)c(I)c2)c(I)c1)C(=O)O` (centres unmarked) [T4 analog 7, 2-[(Tert-butoxycarbonyl)amino]-3-[4-(4-hydroxy-3,5-diiodophenoxy)-3,5-diiodophenyl]propanoic acid], for which, in data set [1] (0.1 μM; PBS 65.2 ± 14.9), the “Branch pts ± SEM” value stood at 173 ± 9.9.

As to `CNC(Cc1cc(I)c(Oc2cc(I)c(O)c(I)c2)c(I)c1)C(=O)[O-].O.O.[K+]` (centres unmarked) [T4 analog 10, Potassium 3-[4-(4-hydroxy-3,5-diiodophenoxy)-3,5-diiodophenyl]-2-(methylamino)propanoate dihydrate], the “Mean % of stimulation (comparing to PBS)” value in data set [1] (0.1 μM; numbers are T4 analogs of Example 12) is given as 43.8 ± 6.5%. Further, the “Mean Branch points” value in data set [1] (0.1 μM; numbers are T4 analogs of Example 12; mean ± SEM, n = 8; PBS 73 ± 6) was determined as 105 ± 7. Also, the “Mean stimulation of angiogenesis (%)” value in data set [2] (10 μg/matrigel plug, numbers are T4 analogs of Example 12, dihydrate) was 87% and 87 ± 33%. In data set [2] (setting [6]), the “Hemoglobin (mg/mL) ± SEM” value was 0.8 ± 0.2 mg/mL.

For the compound `CCNC(Cc1cc(I)c(Oc2cc(I)c(O)c(I)c2)c(I)c1)C(=O)O` (centres unmarked) [T4 analog 11, 2-(Ethylamino)-3-[4-(4-hydroxy-3,5-diiodophenoxy)-3,5-diiodophenyl]propanoic acid], the “effect on angiogenesis, representative illustrations FIG. 23 (in words)” value (from here on “effect on angiogenesis”) in data set [1] (setting [7]) is “proangiogenesis”.

In the case of `CCNC(Cc1cc(I)c(Oc2cc(I)c(O)c(I)c2)c(I)c1)C(=O)OCC` (centres unmarked) [T4 analog 12, Ethyl-2-(ethylamino)-3-[4-(4-hydroxy-3,5-diiodophenoxy)-3,5-diiodophenyl]propanoate], the “Mean Branch points” value in data set [1] (FGF (1.25 μg/ml) + T4 analog 12 (0.1 μM); PBS 73 ± 6) was 46 ± 2. In data set [1] (T4 analog of Example 12), the “effect on FGF and T4 activity, CAM and matrigel assays (in words)” value was “entirely inhibiting FGF and T4 activity”. The “effect on angiogenesis” value in data set [1] (setting [7]) is “anti-angiogenic”. For the same compound, the “Hemoglobin (mg/mL) ± SEM” value in data set [2] (setting [8]) was found to be 0.4 ± 0.1 mg/mL.

On to `CC(C)[Si](OC(=O)C(Cc1cc(I)c(Oc2cc(I)c(O)c(I)c2)c(I)c1)NC(=O)OC(C)(C)C)(C(C)C)C(C)C` (centres unmarked) [T4 analog 13, Triisopropylsilyl-2-(tert-butoxycarbonylamino)-3-(4-(4-hydroxy-3,5-diiodophenoxy)-3,5-diidoclophenyl)propanoate], for which the “Mean % of stimulation (comparing to PBS)” value in data set [1] (setting [9]) worked out at 4.1 ± 6.5%. Besides, the “Mean Branch points” value in data set [1] (setting [10]) is 76 ± 7; in data set [1] (FGF (1.25 μg/ml) + test substance, 10 μg/plug per footnote; numbers are Tetrac analogs of Example 13; n = 8; PBS 73 ± 6, FGF 130 ± 11), 105 ± 7. Also, the “Mean % Inhibition” value in data set [1] (FGF (1.25 μg/ml) + test substance, 10 μg/plug per footnote; numbers are Tetrac analogs of Example 13) is given as 44 ± 13%. In data set [2] (setting [11]), the “Mean stimulation of angiogenesis (%)” value came out at 0 ± 17%. Also, the “Hemoglobin (mg/mL) ± SEM” value in data set [2] (setting [6]) is reported as 0.3 ± 0.1 mg/mL.

For the compound `CC(C)(C)OC(=O)NC(Cc1cc(I)c(Oc2cc(I)c(OCC3CO3)c(I)c2)c(I)c1)C(=O)OCC1CO1` (centres unmarked) [T4 analog 14, Oxiran-2-ylmethyl-2-(tert-butoxycarbonylamino)-3-(4-(3,5-diiodo-4-(oxiran-2-ylmethoxy)phenoxy)-3,5-diiodophenyl)propanoate], in data set [1] (setting [9]), the “Mean % of stimulation (comparing to PBS)” value is reported as 56.2 ± 7.5%. The “Mean Branch points” value in data set [1] (setting [10]) is given as 114 ± 11. The “Mean stimulation of angiogenesis (%)” value in data set [2] (setting [11]) was 0 ± 17%. Further, the “Hemoglobin (mg/mL) ± SEM” value in data set [2] (setting [6]) was 0.3 ± 0.1 mg/mL.

In the case of `CC(C)[Si](OC(=O)C(Cc1cc(I)c(Oc2cc(I)c(OCC3CO3)c(I)c2)c(I)c1)NC(=O)OC(C)(C)C)(C(C)C)C(C)C` (centres unmarked) [T4 analog 15, Triisopropylsilyl-2-(tert-butoxycarbonylamino)-3-(4-(3,5-diiodo-4-(oxiran-2-ylmethoxy)phenoxy)-3,5-diiodophenyl)propanoate], the “Mean Branch points” value in data set [1] (setting [10]) worked out at 98 ± 8. Further, the change in vivo at 1 µM in data set [1] (setting [3]) came out at 34.2 ± 7%. Moreover, in data set [1] (setting [7]), the “effect on angiogenesis” value is recorded as “no effect”. Besides, the “Mean stimulation of angiogenesis (%)” value in data set [2] (setting [11]) stood at 0 ± 17%. Moreover, the “Hemoglobin (mg/mL) ± SEM” value in data set [2] (setting [6]) came out at 0.3 ± 0.1 mg/mL.

Turning to `CC(C)(C)OC(=O)Cc1cc(I)c(Oc2cc(I)c(O)c(I)c2)c(I)c1` [Tetrac analog 3, tert-Butyl-2-(4-(4-hydroxy-3,5-diiodophenoxy)-3,5-diiodophenyl)acetate], the “inhibition of FGF-induced angiogenesis (in words)” value in data set [2] is on record as “strong”.

As for `O=C(Cc1cc(I)c(Oc2cc(I)c(O)c(I)c2)c(I)c1)NC1CCCCC1` [Tetrac analog 4, N-cyclohexyl-2-(4-(4-hydroxy-3,5-diiodophenoxy)-3,5-diiodophenyl)acetamide], in data set [1] (numbers are Tetrac analogs of Example 13), the “inhibition of angiogenesis in the CAM assay (in words)” value is “not as strong as compounds 3, 5, 7, and 9”. For the same compound, in data set [2], the inhibition in vivo at 10 µg/plug stood at 104 ± 12% and the “inhibition of FGF-induced angiogenesis (in words)” value was “strong”.

On to “FGF2: human recombinant FGF2, basic fibroblast growth factor, standard proangiogenic agent”, for which the “ANGIOGENESIS INDEX” value in data set [1] (1 uM; n = 8 per group; PBS (Control) 89.4 ± 9.3) stood at 155 ± 9. Also, the “Branch pts ± SEM” value in data set [1] (1.25 μg/ml; PBS 76.0 ± 8.5) is reported as 137.9 ± 7.5. Further, the “Mean % of stimulation (comparing to PBS)” value in data set [1] (FGF 1.25 μg/mL alone) was 178.1 ± 7.5%. Besides, the “Mean Branch points” value in data set [1] (FGF 1.25 μg/mL alone; n = 8; PBS 73 ± 6) amounted to 130 ± 11. Moreover, the “stimulation of branch formation” value in data set [1] (FGF2 1 μg/mL) came out at 2.2 fold. In addition, the increase in angiogenesis in data set [1] (FIG. 5, 3 experiments; concentration not given) is on record as 2 fold. The “Hemoglobin (mg/mL) ± SEM” value in data set [2] (FGF 100 ng alone, Control 0.3 ± 0.1) was found to be 2.4 ± 0.4 mg/mL.

In the case of tetraiodothyroacetic acid [Tetrac], the “Mean inhibition of angiogenesis (%)” value in data set [2] (T4 + test substance, each 10 μg/matrigel plug) worked out at 89 ± 11%. Further, the “Hemoglobin (mg/mL) ± SEM” value in data set [2] (setting [8]) is recorded as 0.4 ± 0.1 mg/mL.

The values are drawn from US8802240B2, “Uses of formulations of thyroid hormone analogs and nanoparticulate forms thereof to increase chemosensitivity and radiosensitivity in tumor or cancer cells” (Nanopharmaceuticals LLC, priority 2011, dated 2014).
